Experiment: Extraction of hexanol from aqueous solution with trialkylphosphine in alkane or pure trialkylphosphine
Assay type: physicochemical
[1] = hexanol extraction without buffer in aqueous phase, mass ratio 9 to 1
[2] = with ammonium acetate buffer in aqueous phase, mass ratio 9 to 1

Equilibrium pH (hexanol extraction without buffer in aqueous phase): 7.01
Aq. Hexanoic acid conc. (after) [1]: 2.40 g/kg
Aq. Hexanoic acid conc. (before) [1]: 3.70 g/kg
Aq. Hexanol conc. (after) [2]: 2.75 g/kg
Org. Hexanol conc. [2]: 12.44 g/kg
Org. Hexanol conc. (without buffer in aqueous phase, mass ratio 9 to 1): 11.65 g/kg
SMILES: CCCCCCCCCCCCCC [none (100% tetradecane), tetradecane]

From patent publication US12686694B2, “Method of extracting carbonic acid, aliphatic acids, esters and alcohols from an aqueous medium” (EVONIK OPERATIONS GMBH, priority 2019, dated 2026)
